How the values were obtained:
pKa of lipid headgroups = format: physicochemical; conditions: lowest value that arranges all release-rate data points in a straight line
Method: The Zeta potential of liposomes containing different fractions of the titratable domain-forming lipid DSPA was measured in phosphate buffer at different pH values (7.4, 5.5, and 4.0) using a Zetasizer ZS90 (Malvern instruments, Worcestershire, UK). Measurements were performed in 10 mM PBS with no salt. For these measurements, liposomes (1 mM total lipid) were prepared without grafted PEG-chains on their surface to allow for closer approach of the plane of shear to the physical surface of lipid membranes.
For all lipid fractions, the rate of content release attributed to discontinuities at the interfacial boundaries is linearly proportional to the square root of protonated DSPA lipids and therefore proportional to the total perimeter of the discontinuities' interface (open symbols).
This deviation of the pKa value can be attributed to several factors. First, the proposed model of small, circular domains is certainly an oversimplification. Second, because the apparent pKa of PA should depend on the surface charge density, the values of apparent pKa should be composition-dependent.

[1] = reported value; cited from earlier work

In the case of phosphatidic acid, the “pKa used to calculate the fraction of protonated DSPA lipids” value (pKa of lipid headgroups) is given as 4.5 and the pKa [1] is given as 4.0.
